This is an account of results in publication PMC4491811, “Force-induced chemical reactions on the metal centre in a single metalloprotein molecule” (Nature Communications, 2015).

The target of this assay is T1, rubredoxin (RD), in polyprotein (RD-GB1)n (Pyrococcus furiosus, UniProt P24297).
T1 construct: gene rub; full-length ferric (FeS4) rubredoxin fused to GB1 fingerprint domain, His-tag purified from E. coli DH5alpha, linked by BM(PEO)3 thiol-maleimide coupling into (RD-GB1)n
T1 sequence (P24297 2-54): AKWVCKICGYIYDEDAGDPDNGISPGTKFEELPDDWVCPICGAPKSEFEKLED
Put plainly: single-molecule AFM force clamp, FeS4 rupture rate against [KSCN]. Particulars: pH 7.4, 100 mM Tris and NaCl, KSCN 5-800 mM; ferric-thiolate bond rupture rate extrapolated to zero force (Bell-Evans); FeS4 centre exposed by force-induced partial unfolding; not an affinity. The class given is binding.

On to `N#CS` [SCN^−], for which the “k (second-order rate constant of ligand substitution)” value is 0.36 M⁻¹ s⁻¹.
